Measurements as given in ChEMBL document CHEMBL1201862, “PubChem BioAssay data set” (2004).
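Where inhibition never reached the appropriate level, the endpoint shown equals the highest concentration tested. Otherwise, values were interpolated linearly from a five-concentration, 48-hour dose response in 96-well plates. GI50: concentration for 50% inhibition of growth.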 The source made the active and inactive calls. Rule as the data show it: active = GI50 up to about 1.1 µM and inactive = higher.

What was measured:
Assay in all cases: NCI-60 cell line screen, 48 h
786-0 = system: 786-0
A498 = system: A498
A549 = system: A549
ACHN = system: ACHN
CAKI-1 = system: CAKI-1
CCRF-CEM = system: CCRF-CEM
COLO 205 = system: COLO 205
DLD-1 = system: DLD-1
DMS-114 = system: DMS-114
DMS-273 = system: DMS-273
EKVX = system: EKVX
HCC 2998 = system: HCC 2998
HCT-116 = system: HCT-116
HCT-15 = system: HCT-15
HL-60 = system: HL-60
HOP-18 = system: HOP-18
HOP-62 = system: HOP-62
HOP-92 = system: HOP-92
HT-29 = system: HT-29
IGROV-1 = system: IGROV-1
K562 = system: K562
KM-20L2 = system: KM-20L2
KM12 = system: KM12
LOX IMVI = system: LOX IMVI
LXFL 529 = system: LXFL 529
M14 = system: M14
M19-MEL = system: M19-MEL
MOLT-4 = system: MOLT-4
Malme-3M = system: Malme-3M
NCI-H226 = system: NCI-H226
NCI-H23 = system: NCI-H23
NCI-H460 = system: NCI-H460
NCI-H522 = system: NCI-H522
OVCAR-3 = system: OVCAR-3
OVCAR-4 = system: OVCAR-4
OVCAR-5 = system: OVCAR-5
OVCAR-8 = system: OVCAR-8
RPMI-8226 = system: RPMI-8226
RXF 393 = system: RXF 393
SF-268 = system: SF-268
SF-295 = system: SF-295
SF-539 = system: SF-539
SK-MEL-28 = system: SK-MEL-28
SK-MEL-2 = system: SK-MEL-2
SK-MEL-5 = system: SK-MEL-5
SK-OV-3 = system: SK-OV-3
SN12C = system: SN12C
SNB-19 = system: SNB-19
SNB-75 = system: SNB-75
SNB-78 = system: SNB-78
SR = system: SR
SW-620 = system: SW-620
TK-10 = system: TK-10
U-251 = system: U-251
UACC-257 = system: UACC-257
UACC-62 = system: UACC-62
UO-31 = system: UO-31
XF498 = system: XF498
DU-145 = system: DU-145
Hs-578T = system: Hs-578T
MCF7 = system: MCF7
MDA-MB-231 = system: MDA-MB-231
MDA-MB-435 = system: MDA-MB-435
MDA-N = system: MDA-N
NCI/ADR-RES = system: NCI/ADR-RES
PC-3 = system: PC-3
T47D = system: T47D

## O=C(/C=C/c1ccc(Br)cc1)c1ccc(NCc2nc3ccccc3[nH]2)cc1
786-0
  GI50: 5.25 µM (inactive)
A498
  GI50: 19.1 µM (inactive)
A549
  GI50: 5.77 µM (inactive)
ACHN
  GI50: 17.5 µM (inactive)
CAKI-1
  GI50: 9.68 µM (inactive)
CCRF-CEM
  GI50: 4.76 µM (inactive)
COLO 205
  GI50: 2.53 µM (inactive)
DLD-1
  GI50: 4.83 µM (inactive)
DMS-114
  GI50: 2.99 µM (inactive)
DMS-273
  GI50: 5.7 µM (inactive)
EKVX
  GI50: > 30.2 µM (inactive)
HCC 2998
  GI50: 6.56 µM (inactive)
HCT-116
  GI50: 4.66 µM (inactive)
HCT-15
  GI50: 3.95 µM
HL-60
  GI50: 5.86 µM (inactive)
HOP-18
  GI50: > 46.2 µM (inactive)
HOP-62
  GI50: 22.2 µM (inactive)
HOP-92
  GI50: 4 µM (inactive)
HT-29
  GI50: 4.65 µM (inactive)
IGROV-1
  GI50: 17.3 µM (inactive)
K562
  GI50: 3.35 µM (inactive)
KM-20L2
  GI50: 4.83 µM (inactive)
KM12
  GI50: 2.67 µM (inactive)
LOX IMVI
  GI50: 2.11 µM (inactive)
LXFL 529
  GI50: 4.24 µM (inactive)
M14
  GI50: 17.9 µM (inactive)
M19-MEL
  GI50: 6.56 µM (inactive)
MOLT-4
  GI50: 3.31 µM (inactive)
Malme-3M
  GI50: 25 µM (inactive)
NCI-H226
  GI50: 10.9 µM (inactive)
NCI-H23
  GI50: 4.95 µM (inactive)
NCI-H460
  GI50: 8.22 µM (inactive)
NCI-H522
  GI50: 3.41 µM (inactive)
OVCAR-3
  GI50: 4.61 µM (inactive)
OVCAR-4
  GI50: 14.4 µM (inactive)
OVCAR-5
  GI50: > 59.8 µM (inactive)
OVCAR-8
  GI50: 3.37 µM (inactive)
RPMI-8226
  GI50: 1.93 µM (inactive)
RXF 393
  GI50: 4.35 µM (inactive)
SF-268
  GI50: 8.18 µM (inactive)
SF-295
  GI50: 4.61 µM (inactive)
SF-539
  GI50: 10 µM (inactive)
SK-MEL-28
  GI50: 18.6 µM (inactive)
SK-MEL-2
  GI50: 17.6 µM (inactive)
SK-MEL-5
  GI50: 4.4 µM (inactive)
SK-OV-3
  GI50: 28.4 µM (inactive)
SN12C
  GI50: 9.93 µM (inactive)
SNB-19
  GI50: 8.79 µM (inactive)
SNB-75
  GI50: 4.34 µM (inactive)
SNB-78
  GI50: 2.98 µM (inactive)
SR
  GI50: 5.69 µM (inactive)
SW-620
  GI50: 2.96 µM (inactive)
TK-10
  GI50: 11.1 µM (inactive)
U-251
  GI50: 3.83 µM (inactive)
UACC-257
  GI50: 3.81 µM (inactive)
UACC-62
  GI50: 7.1 µM (inactive)
UO-31
  GI50: 7.73 µM (inactive)
XF498
  GI50: 5.89 µM (inactive)

## CCN(CC)CCCNc1ccc2ncn3c4ccc(O)cc4c(=O)c1c23
786-0
  GI50: 0.643 µM (active)
A498
  GI50: 4.45 µM (inactive)
A549
  GI50: 0.231 µM (active)
ACHN
  GI50: 0.272 µM (active)
CAKI-1
  GI50: 0.365 µM (active)
CCRF-CEM
  GI50: 0.166 µM (active)
COLO 205
  GI50: 0.908 µM (active)
DLD-1
  GI50: 1.24 µM (inactive)
DMS-114
  GI50: 3.37 µM (inactive)
DMS-273
  GI50: 0.553 µM (active)
DU-145
  GI50: 1.42 µM (inactive)
EKVX
  GI50: 7.41 µM (inactive)
HCC 2998
  GI50: 2.15 µM (inactive)
HCT-116
  GI50: 0.441 µM (active)
HCT-15
  GI50: 2.71 µM
HOP-18
  GI50: 18.6 µM (inactive)
HOP-62
  GI50: 0.989 µM (active)
HOP-92
  GI50: 0.718 µM (active)
HT-29
  GI50: 0.649 µM (active)
Hs-578T
  GI50: 0.39 µM (active)
IGROV-1
  GI50: 1.39 µM (inactive)
K562
  GI50: 1.04 µM (active)
KM-20L2
  GI50: 2.85 µM (inactive)
KM12
  GI50: 3.85 µM (inactive)
LOX IMVI
  GI50: 0.392 µM (active)
LXFL 529
  GI50: 2.65 µM (inactive)
M14
  GI50: 3.3 µM (inactive)
M19-MEL
  GI50: 5.83 µM (inactive)
MCF7
  GI50: 0.687 µM (active)
MDA-MB-231
  GI50: 1.88 µM (inactive)
MDA-MB-435
  GI50: > 10 µM (inactive)
MDA-N
  GI50: 6.08 µM (inactive)
MOLT-4
  GI50: 0.0411 µM (active)
Malme-3M
  GI50: 4.78 µM (inactive)
NCI-H226
  GI50: 0.214 µM (active)
NCI-H23
  GI50: 2.19 µM (inactive)
NCI-H460
  GI50: 0.105 µM (active)
NCI-H522
  GI50: 0.851 µM (active)
NCI/ADR-RES
  GI50: > 10 µM (inactive)
OVCAR-3
  GI50: 8.69 µM (inactive)
OVCAR-4
  GI50: 1.01 µM (active)
OVCAR-5
  GI50: 1.98 µM (inactive)
OVCAR-8
  GI50: 0.467 µM (active)
PC-3
  GI50: 1.41 µM (inactive)
RPMI-8226
  GI50: 2.06 µM (inactive)
RXF 393
  GI50: 0.14 µM (active)
SF-268
  GI50: 1.66 µM (inactive)
SF-295
  GI50: 1.63 µM (inactive)
SF-539
  GI50: 2.9 µM (inactive)
SK-MEL-28
  GI50: 12.4 µM (inactive)
SK-MEL-2
  GI50: 3.7 µM (inactive)
SK-MEL-5
  GI50: 3.41 µM (inactive)
SK-OV-3
  GI50: 0.527 µM (active)
SN12C
  GI50: 0.637 µM (active)
SNB-19
  GI50: 2.21 µM (inactive)
SNB-75
  GI50: 0.871 µM (active)
SNB-78
  GI50: 8.65 µM (inactive)
SR
  GI50: 0.171 µM (active)
SW-620
  GI50: 0.578 µM (active)
T47D
  GI50: > 10 µM (inactive)
TK-10
  GI50: 1.69 µM (inactive)
U-251
  GI50: 1.66 µM (inactive)
UACC-257
  GI50: 11.5 µM (inactive)
UACC-62
  GI50: 3.21 µM (inactive)
UO-31
  GI50: 2.16 µM (inactive)
XF498
  GI50: 0.239 µM (active)
